Measured values: US20230128194A1, “METHODS AND COMPOSITIONS TO ALTER HEPATIC GABA RELEASE TO TREAT OBESITY-RELATED CONDITIONS” (ARIZONA BOARD OF REGENTS ON BEHALF OF THE UNIVERSITY OF …, priority 2017, published 2023)

Legend:
[1] = target: T1, GABA-T (Mus musculus, UniProt P61922); assay: liver slice GABA export with GABA-T inhibitor ex vivo; type: cell-based; conditions: 5.3 mM
T1 construct: from tissue; host or cells: liver slices of lean, obese and obese Kir2.1-expressing mice
From the text: Two liver slices were taken from each mouse.

[2] = tested on: high fat diet-induced obese mice; assay: muscle cGMP content (ELISA); type: in vivo, mouse; conditions: day 5
Protocol: On the fifth day of EOS or PBS treatment, mice were sacrificed and the quadricep and soleus tissues were collected and frozen on dry ice. Prior to analysis, frozen quadricep were powdered using a liquid nitrogen cooled mortar and pestle to obtain homogenous muscle samples. 15-20 mg of quadricep and the entire soleus tissue (6-12 mg) were homogenized in 200 μL of a 5% trichloroacetic acid solution. Following 15 minutes of centrifugation at 3,000×g at 4° C., supernatant was transferred to a fresh tube for analysis of muscle cGMP by enzyme-linked immunosorbent assay (ELISA; ADI-900-164, Enzo Life Sciences, Farmingdale, N.Y.).

[3] = tested on: lean mice; assay: GABA-T inhibitors (8 mg/day oral gavage) in lean mice: glucose homeostasis; type: in vivo, mouse
Protocol: (§1) All animal studies were conducted using male wildtype C57BL/6J mice purchased from Jackson Laboratories or bred in-house (Bar Harbor, Me.). Mice were kept on a 14-hour light/10-hour dark schedule and housed 3-5 mice per cage until 1 week prior to study initiation, at which point animals were individually housed. Studies were conducted in lean chow fed mice (7013 NIH-31, Teklad WI, 3.1 kcal/g, 18% kcal from fat, 59% kcal from carbohydrate, 23% kcal from protein) at 12-16 weeks of age. Studies in diet-induced obese mice dosed intraperitoneally with GABA transaminase inhibitors, mice treated with ethanolamine-O-sulfate in their drinking water, and mice treated with GABA-T targeted or scramble control antisense oligonucleotides (ASO) were performed after 8-10 weeks on a high fat diet (TD 06414, Teklad WI, 5.1 kcal/g, 60.3% kcal from fat, 21.3% kcal from carbohydrate, 18.4% kcal from protein; 20-26 weeks of age). For ASO studies, mice were stratified by body weight and assigned to an injection treatment (control or GABA-T). Studies in obese vagotomy and sham mice were performed after 9 weeks of high fat diet feeding. Unless fasted, mice had ad libitum access to food and water. All studies were approved by The University of Arizona Institutional Animal Care and Use Committee.
(§2) Wildtype lean and obese mice were randomly divided into treatment groups and dosed daily with 8 mg of ethanolamine-O-sulfate (EOS; Sigma-Aldrich, St. Louis, Mo.), vigabatrin (United States Pharmacopeia, Rockville, Md.) or PBS. Obese sham and vagotomy mice were dosed daily with 8 mg of EOS. In all cases, basal bleeds were taken prior to initiation of an ITT. Lean mice received treatment by oral gavage (0.3 mL/mouse) while obese mice were treated by intraperitoneal injection (0.3 mL/mouse). Pre-treatment studies were conducted in the week immediately prior to beginning drug administration. Daily doses took place at 9 am each day and oral glucose tolerance tests (OGTT) and insulin tolerance tests (ITT) were performed on the third and fourth days of treatment in lean mice, respectively. In wildtype obese mice, OGTT and ITT were performed on the fourth day of treatment in separate cohorts. On the fifth day of treatment, 2DG clearance studies were performed. In sham/vagotomy mice, OGTT and ITT were performed on the fourth and fifth day of treatment, respectively. After a 2-week washout period without treatment injection, a basal bleed and bleed 15 minutes after an oral glucose gavage ([…]) to determine oral glucose stimulated insulin secretion were performed.
(§3) Oral glucose (2.5 g/kg; 0.1 mL/10 g body weight; Chem-Impex Int'l Inc., Wood Dale, Ill.) was given to 4 hour fasted individually housed mice. All glucose tolerance tests began at […] and glucose was measured in whole blood, collected from the tail vein, by glucometer (Manufacture #D2ASCCONKIT, Bayer, Leverkusen, Germany) at 0, 15, 30, 60, 90, and 120 minutes after glucose gavage. Blood for serum insulin (oral glucose stimulated insulin secretion; OGSIS) and glucose determination was collected from the tail vein 15 minutes following glucose administration.
(§4) Intraperitoneal insulin (0.5 U/kg; 0.1 mL/10 g body weight; Sigma Aldrich, St. Louis, Mo.) was given to 4 hour fasted individually housed mice. All insulin tolerance tests began at […] and glucose was measured in whole blood, collected from the tail vein, by glucometer (Manufacture #D2ASCCONKIT, Bayer, Leverkusen, Germany) at 0, 30, 60, 90, and 120 minutes after insulin injection.
(§5) Within 2 hours of collection, blood was left to clot at room temperature for 20 minutes. Thereafter, the blood was centrifuged at 3,000×g for 30 minutes at 4° C. and serum was collected. Serum was stored at −80° C. until metabolite and hormone analyses. A colorimetric assay was used to analyze serum glucose (Cat. #G7519, Pointe Scientific Inc., Canton Mich.). Serum insulin was analyzed by enzyme-linked immunosorbent assay (ELISA; Cat. #80-INSMSU-E01,E10, Alpco, Salem, N.H.). […]

[4] = tested on: high fat diet-induced obese mice; assay: tissue specific 3H-2-deoxy-D-glucose uptake after oral glucose gavage; type: in vivo, mouse; conditions: day 5, vs saline
Protocol: On the fifth day of EOS or PBS treatment 3H-2-deoxy-D-glucose (2DG; 10 uCi/mouse; PerkinElmer, Waltham, Mass.) was given to 4-hour fasted individually housed mice. Studies were performed in 2 cohorts on 2 different days. 2DG was given by oral gavage in a solution of glucose (2.5 g/kg) and each mouse received the same dose based off the average body weight for their cohort (0.1 mL/10 g body weight). Mice were anesthetized by isoflurane and sacrificed by cervical dislocation 45 minutes following oral gavage. Liver, soleus, quadriceps femoris, and gonadal white adipose tissue were collected, weighed, and dissolved overnight in 1N NaOH (0.5 mL/50 mg tissue) at 55° C. on a shaker plate. 0.5 mL of dissolved tissue was added to 5 mL of scintillation cocktail (Ultima Gold, PerkinElmer, Waltham, Mass.) and disintegrations per minute (DPM) were measured using a LS 6500 Multipurpose Scintillation Counter (Beckman Coulter, Brea, Calif.). DPM/g tissue weight was determined for each tissue and normalized based on a correction factor calculated by the average total DPM/g for all tissues divided by the total DPM/g for all tissues of the individual mouse.

[5] = tested on: high fat diet-induced obese mice; assay: GABA-T inhibitors (8 mg/day IP) in HFD-induced obese mice: body weight, serum insulin/glucose/glucagon, OGTT, ITT; type: in vivo, mouse
Protocol: as §1, §2, §3, §4, §5

[6] = 8 mg/day IP, four days, relative to pre-treatment

T1 sequence (P61922 29-500): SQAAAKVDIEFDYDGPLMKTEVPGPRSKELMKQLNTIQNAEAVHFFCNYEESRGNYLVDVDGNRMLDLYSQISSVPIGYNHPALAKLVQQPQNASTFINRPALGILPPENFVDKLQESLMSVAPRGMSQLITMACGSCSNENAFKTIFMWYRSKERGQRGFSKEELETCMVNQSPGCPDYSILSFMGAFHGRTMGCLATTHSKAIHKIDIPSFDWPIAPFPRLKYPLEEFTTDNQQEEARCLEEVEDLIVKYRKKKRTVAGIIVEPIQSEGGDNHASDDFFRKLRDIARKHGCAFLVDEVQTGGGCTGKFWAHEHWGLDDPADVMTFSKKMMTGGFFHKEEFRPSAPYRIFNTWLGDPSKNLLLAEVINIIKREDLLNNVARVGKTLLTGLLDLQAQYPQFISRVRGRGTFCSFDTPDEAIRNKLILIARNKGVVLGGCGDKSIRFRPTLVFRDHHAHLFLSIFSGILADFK

NCCOS(=O)(=O)O [EOS, ethanolamine-O-sulfate]
GABA export ([1]; obese Kir2.1 expressing liver slices): decreased | GABA export ([1]; obese control liver slices): decreased | cGMP in quad [2]: no effect | increase of cGMP in the soleus [2]: 59% | serum glucose [3]: decreased | glucose tolerance ([3]; 8 mg/day): no effect | insulin sensitivity ([3]; 8 mg/day): no effect | serum insulin concentrations ([3]; 8 mg/day): no effect | glucose homeostasis ([3]; acute): does not alter | 2DG clearance by gonadal white adipose tissue [4]: did not affect | 2DG clearance by the quadriceps femoris [4]: did not affect | increase of 2DG uptake by the soleus [4]: 22% | glucose:insulin ratio [5, 6]: increased | serum glucose [5, 6]: decreased | serum insulin [5, 6]: decreased | body weight ([5]; 8 mg/day IP, through 5 days, vs saline injected mice): remained similar | serum glucagon ([5]; 5 days, relative to control mice): decreased | glucose stimulated serum insulin ([5]; treatment day 4, relative to pre-treatment): tended to be decreased | glucose stimulated serum insulin after washout ([5]; two-weeks washout): markedly increased | serum insulin and glucose:insulin ratio after washout ([5]; two-weeks washout): return of serum insulin and the glucose:insulin ratio to pre-treatment levels | insulin sensitivity assessed by insulin tolerance test (ITT) ([5]; within 4 days of initiating treatment): improved
